Data: patent US20080241870A1, “Composition For Creating an Artificial Bone Marrow Like Environment and Use Thereof” (NATIONAL CENTRE FOR CELL SCINECES, priority 2005, published 2008)

How the values were obtained:
Type in all cases: cell-based, human
CD34+ cells [1] = assay: self renewal: CD34+ cell number after 48 hours on ABME; Jagged1 expression
Experimental: Mesenchyme cells were grown on a sterile 1 cm×1 cm glass coverslip to near confluence and were covered with a treatment medium containing 10 ngml^−1 TGF-β1 and were incubated for 18 hours in a humidified sterile atmosphere and 5% CO2. The coverslips were then washed with PBS, and the ABME thus created were covered with a suspension of 2×10^5 CD34^+ cells in 0.2 ml of IMDM with 20% serum. The cells were washed after one hour and the bound cells were covered with medium with 20% serum containing 0.8% methyl cellulose and growth factors. The change in CD34^+ cell number after 48 hours was monitored with a CD34^+ specific antibody (clone HPCA1, Becton Dickinson, USA).

CD34+ cells [2] = assay: adhesion of CD34+ cells to ABME on coverslips; conditions: 10 ngml^-1, 18 hours; CD34+/MNC contact 1 hour; vs reference coverslip
Experimental: Mesenchyme cells were grown on a sterile 1 cm×1 cm glass coverslip to near confluence and were covered with a treatment medium containing 10 ngml^−1 TGF-β1 and were incubated for 18 hours in a humidified sterile atmosphere and 5% CO2. The coverslips were then washed with PBS, and the ABME thus created were covered with a suspension of 2×10^6 MNC or 2×10^5 CD34^+ cells in 0.2 ml of IMDM with 20% serum. After 1 hour at 37° C., the coverslips were washed with PBS and the cells were fixed and stained with a CD34^+ specific antibody (clone HPCA1, Becton Dickinson, USA). The number of CD34^+ cells attached were counted and compared to the number of similar cells that were attached in a parallel reference experiment where TGF-β1 was not used. […] It may be seen from FIGS. 6(d-f) that there is an increased adhesion of CD34^+ cells to mesenchymal cells when mesenchymal cells are treated with TGF-β1.

MNC = assay: self renewal: GEMM colony formation of MNC mixed with doses of ABME cells
Experimental: The mesenchyme cells were grown in IMDM plus 20% fetal bovine serum until they were nearly confluent. The medium was removed and was washed 2× with PBS. ABME was prepared by using a biological hematomodulator namely, TGF beta 1(20 ng ml−1).The ABME formed was washed 2× with PBS and the cells were dissociated with a non-enzymatic solution (Sigma). A fixed number of MNC namely 2×10^5 were mixed with various doses of dissociated mesenchymal cells (2×10^4, 5×10^4 and 1×10^5) and incubated for 1 hour. At the end of the incubation, cells were processed for hematopoietic colony formation assays (HCFA). […] Secondly the lowest concentration of cells from ABME (2×10^4) was more efficient in the stimulation of GEMM formation than the highest concentration (1×10^5) of mesenchymal cells indicating a nearly 10 fold increase in the efficiency.

mesenchymal cells = assay: Hypoxy probe incorporation in ABME under normoxic conditions; conditions: 200 μM Hypoxy probe, 48 hours; FIG. 11b
Experimental: Mesenchymal cells were processed for ABME formation as per details given in Example 7(a) above using a biological modulator namely TGFbeta1 and were incubated with 200 μM Hypoxy probe (Chemicon, USA) for 48 hours. The cells were fixed and immuno-stained with an antibody specific for detection of the label (Chemicon).

CD34+ SPC = assay: lineage commitment: HCFA with CD34+ SPC, count of mature blood cells after 14 days; conditions: 10 ngml^-1, 18 hours; HCFA 14 days; FIG. 8a
Experimental: The mesenchyme cells (5×10^4 cells per well in a 24 well dish) were grown in IMDM plus 20% fetal bovine serum until they were nearly confluent. The medium was removed and was washed 2× with PBS. Two different ABME were prepared by using two biological hematomodulators (TGFβ1 10 ngml^−1, bFGF 10 ngml^−1, 18 hours) separately. The ABME formed was washed 2× with PBS and was covered with 0.2 ml of a suspension of CD34^+ SPC cells (10^5 ml−1) for 1 hour at 37° C. All the cells of the dish were then harvested after washing and were used in a HCFA. After 14 days, the mature blood cells formed were harvested and an aliquot of the suspension was examined under the microscope to identify and count the mature lymphoid and myeloid cells.
The mesenchyme cells (5×10^4 cells per well in a 24 well dish) were grown in IMDM plus 20% fetal bovine serum until they were nearly confluent. The medium was removed and was washed 2× with PBS. The cells in one well were treated with a DiBromo derivative of the Calcium ion chelator BAPTA (5 micromolar) for one hour whereas another well received only the medium without the BAPTA derivative. After 1 hour of incubation at 37° C., TGFβ1 was added to both the wells (10 ng ml−1) and the incubation was continued for a further period of 18 hours. The ABME formed in both wells were washed and were used for HCFA using CD34^+ SPC. After 14 days the mature blood cells were harvested and were quantitated for the cells of erythroid and myeloid lineage.

mesenchyme cells = assay: SDF-1α release / in vitro homing of CD34+ SPC (conditioned medium of treated mesenchyme cells); conditions: 10 ngml^-1, 4 hours treatment, conditioned medium after 18 hours; vs untreated reference
Experimental: 5×10^5 mesenchyme cells were grown on a 35 mm diameter Petri dish (Becton Dickinson, USA) in IMDM containing 20% serum. After the cells were confluent, the medium was removed, the cells were washed 2× with Phosphate buffered saline (GIBCO-BRL) (PBS) and the medium was changed to treatment medium containing 10 ngml^−1 of TGFβ1 and the dishes were returned to standard cell culture environment at 37° C. in 5% CO2. After 4 hours, the treatment medium was removed, the cells were washed with PBS and were covered with 1 ml of IMDM containing 0.5% serum and incubation at 37° C. in 5% CO2 was continued. After 18 hours, the conditioned medium was collected and was assayed for its ability to support in vitro homing of CD34^+ SPC. In another parallel experiment, an equal number of mesenchymal cells were employed, where TGF-β1 was not used and the conditioned medium obtained from this experiment was used as a reference for comparison. […] As shown in FIGS. 6(a-b) untreated mesenchymal cells show no or marginal homing as compared to mesenchymal cells treated with TGF-β1. The homing could be modulated in this case either by adding suitable amounts of a neutralizing antibody to SDF-1α or to its receptor CXCR-4 to neutralize its effects on chemo-attraction of SPC or by destroying the gradient by exogenous addition of SDF1α indicating the specificity of the process.

HIF1α = HIF1α immunostaining of mesenchymal cells; conditions: immunostaining vs control cells; FIG. 11a
Excerpt: Mesenchymal cells were processed for ABME formation as per details given in experiment #1 above using a biological modulator namely TGFbeta1. The cells were fixed after the indicated time periods and immuno-stained with an antibody to HIF1α which is a specific transcription factor related to hypoxia.

Substance: HumanTransforming Growth Factor beta1 [TGFβ1]
- CD34+ cell proliferation (CD34+ cells [1]; 10 ngml^-1, 18 hours, CD34+ number after 48 hours, vs no TGFβ1, FIG. 10b): supported more CD34^+ cell proliferation
- Jagged1 amount in ABME (CD34+ cells [1]; compared to mesenchyme cells, FIG. 10c): significantly more amounts of the promoter of self renewal, Jagged1
- number of CD34+ cells attached to ABME (CD34+ cells [2]): significantly more number of CD34^+ cells attached
- GEMM colony formation (MNC; 20 ng ml-1, 2×10^5 MNC with 2×10^4, 5×10^4, 1×10^5 ABME cells vs control mesenchymal cells, FIG. 10a): clear dose dependent increase in GEMM colony formation
- increase in efficiency of GEMM stimulation (MNC; 2×10^4 ABME cells vs 1×10^5 mesenchymal cells): ~10 fold
- Hypoxy probe label incorporation (mesenchymal cells): high incorporation of the label
- mature lymphoid and myeloid cells formed (CD34+ SPC): supported more myeloid cell formation
- SDF-1α release from mesenchymal cells (mesenchyme cells): significantly more amounts of SDF-1α was released
- HIF1α expression (HIF1α): clear nuclear expression of HIF1α
